For test [1], the target named is Aryl hydrocarbon receptor nuclear translocator/Endothelial PAS domain-containing protein 1 (Homo sapiens) (UniProt P27540+Q99814). As to conditions: filed as agonist, dose 10.0 µM.
The target in test [2] is Endothelial PAS domain-containing protein 1 (Homo sapiens) (UniProt Q99814). In words: Agonist activity at human HIF-2alpha expressed in human 786-0 cells assessed as increase in NDRG1 transcription level at 20 uM incubated for 24 hrs by RT-PCR analysis relative to control. The test is classed as cell-based. The following applies: filed as agonist.
Chain of Endothelial PAS domain-containing protein 1 (Homo sapiens) (Q99814 whole entry, the tested form may be a part): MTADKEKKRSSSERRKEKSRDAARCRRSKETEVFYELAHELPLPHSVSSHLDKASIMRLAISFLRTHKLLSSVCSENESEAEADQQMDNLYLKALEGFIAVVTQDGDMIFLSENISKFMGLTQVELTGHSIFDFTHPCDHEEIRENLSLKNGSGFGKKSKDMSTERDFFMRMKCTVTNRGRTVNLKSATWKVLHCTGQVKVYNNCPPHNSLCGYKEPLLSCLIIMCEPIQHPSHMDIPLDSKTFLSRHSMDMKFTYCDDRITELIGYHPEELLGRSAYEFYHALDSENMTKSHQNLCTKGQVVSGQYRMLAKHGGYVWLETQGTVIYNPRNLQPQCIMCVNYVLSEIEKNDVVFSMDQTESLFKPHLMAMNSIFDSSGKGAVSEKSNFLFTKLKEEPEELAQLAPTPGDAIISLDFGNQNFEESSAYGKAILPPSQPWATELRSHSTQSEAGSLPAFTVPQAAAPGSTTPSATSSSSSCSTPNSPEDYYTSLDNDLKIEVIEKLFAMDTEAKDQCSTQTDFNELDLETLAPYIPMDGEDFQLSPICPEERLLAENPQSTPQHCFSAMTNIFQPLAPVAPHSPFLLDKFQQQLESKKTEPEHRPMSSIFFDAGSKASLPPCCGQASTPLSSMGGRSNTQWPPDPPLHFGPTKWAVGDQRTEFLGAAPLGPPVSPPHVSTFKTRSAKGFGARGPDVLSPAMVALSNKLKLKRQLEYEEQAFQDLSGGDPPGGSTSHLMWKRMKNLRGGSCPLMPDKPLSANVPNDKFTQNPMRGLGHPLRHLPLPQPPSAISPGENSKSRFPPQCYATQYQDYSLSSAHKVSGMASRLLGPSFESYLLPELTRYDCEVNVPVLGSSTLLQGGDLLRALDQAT
Test [3] shares this target. Nature of the test: Synergistic agonist activity at human HIF-2alpha expressed in human Hep3B cells assessed as induction of EPO transcription at 5 uM pretreated with FG4592 followed by compound addition and measured after 12 hrs by qRT-PCR analysis. The class given is cell-based. The following applies: filed as agonist.
The target is the same in test [4]. Nature of the test: Agonist activity at human HIF-2alpha expressed in human 786-0 cells assessed as increase in VEGFA transcription level at 20 uM incubated for 24 hrs by RT-PCR analysis relative to control. The class given is cell-based. The following applies: filed as agonist.
Test [5] has the same target. Nature of the test: Agonist activity at human HIF-2alpha expressed in human 786-0 cells assessed as increase in PGK1 transcription level at 20 uM incubated for 24 hrs by RT-PCR analysis relative to control. The test is classed as cell-based. As to conditions: filed as agonist.
Test [6] shares this target. In words: Agonist activity at human HIF-2alpha expressed in human 786-0 cells assessed as increase in GLUT1 transcription level at 20 uM incubated for 24 hrs by RT-PCR analysis relative to control. The class given is cell-based. As to conditions: filed as agonist.
Test [7] has the same target. In words: Agonist activity at human HIF-2alpha expressed in human 786-0 cells assessed as increase in VEGFA transcription level at 0.2 uM incubated for 24 hrs by RT-PCR analysis relative to control. The test is classed as cell-based. As to conditions: filed as agonist.
For test [8] the target is unchanged. In words: Agonist activity at human HIF-2alpha expressed in human 786-0 cells assessed as increase in NDRG1 transcription level at 2 uM incubated for 24 hrs by RT-PCR analysis relative to control. The test is classed as cell-based. As to conditions: filed as agonist.
Test [9] shares this target. Nature of the test: Agonist activity at human HIF-2alpha expressed in human 786-0 cells assessed as increase in NDRG1 transcription level at 0.2 uM incubated for 24 hrs by RT-PCR analysis relative to control. The test is classed as cell-based. As to conditions: filed as agonist.
Test [10] shares this target. Nature of the test: Agonist activity at human HIF-2alpha expressed in human 786-0 cells assessed as increase in VEGFA transcription level at 2 uM incubated for 24 hrs by RT-PCR analysis relative to control. As to conditions: filed as agonist. The class given is cell-based.

The structures appear in SMILES notation. Activity calls are given as the source filed them. The calls are words filed in the database; no cut-off is given here.

The ΔTm is the shift of the melting midpoint relative to a reference.

Chain of Aryl hydrocarbon receptor nuclear translocator/Endothelial PAS domain-containing protein 1 (Homo sapiens) (P27540 2-789 limits assumed): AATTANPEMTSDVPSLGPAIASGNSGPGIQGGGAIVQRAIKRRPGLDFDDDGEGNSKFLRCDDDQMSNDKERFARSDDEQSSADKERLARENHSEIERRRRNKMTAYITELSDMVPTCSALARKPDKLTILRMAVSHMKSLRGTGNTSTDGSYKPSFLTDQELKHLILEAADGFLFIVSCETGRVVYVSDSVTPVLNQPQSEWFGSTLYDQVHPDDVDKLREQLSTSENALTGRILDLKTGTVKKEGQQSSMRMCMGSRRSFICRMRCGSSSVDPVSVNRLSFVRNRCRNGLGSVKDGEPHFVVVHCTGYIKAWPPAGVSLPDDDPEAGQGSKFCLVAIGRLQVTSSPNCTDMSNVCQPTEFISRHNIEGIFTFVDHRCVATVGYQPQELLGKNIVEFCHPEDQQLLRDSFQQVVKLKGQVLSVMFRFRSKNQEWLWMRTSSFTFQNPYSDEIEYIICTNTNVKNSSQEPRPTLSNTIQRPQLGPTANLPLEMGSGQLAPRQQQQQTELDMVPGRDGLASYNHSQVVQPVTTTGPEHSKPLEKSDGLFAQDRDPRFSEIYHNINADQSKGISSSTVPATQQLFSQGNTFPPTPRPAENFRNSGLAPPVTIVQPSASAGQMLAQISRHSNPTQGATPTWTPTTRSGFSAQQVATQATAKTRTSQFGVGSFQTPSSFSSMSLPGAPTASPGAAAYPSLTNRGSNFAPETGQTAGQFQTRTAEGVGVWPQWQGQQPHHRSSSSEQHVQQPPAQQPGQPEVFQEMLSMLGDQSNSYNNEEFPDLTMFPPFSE
Chain of Aryl hydrocarbon receptor nuclear translocator/Endothelial PAS domain-containing protein 1 (Homo sapiens) (Q99814 whole entry partner, the tested form may be a part): as the sequence (Q99814 whole entry, the tested form may be a part) above

`O=S1(=O)N=C(Oc2cc(C(F)(F)F)cc(C(F)(F)F)c2)c2ccccc21`: the ΔTm in test [1] came out at 0.07 °C. Moreover, the figures for the Activity in [2], in test [4] and in [5] were 97.6%, 105% and 124%, respectively. Further, the outcome in test [3] was Active.
With `N#Cc1cccc(NC2=NS(=O)(=O)c3ccccc32)c1`, the ΔTm in [1] turned out to be 0.07 °C.
With `CC(=O)c1cccc(NC2=NS(=O)(=O)c3ccccc32)c1`, the ΔTm in [1] is -0.13 °C.
Turning to `CS(=O)(=O)c1cc(NC2=NS(=O)(=O)c3ccccc32)cc(S(C)(=O)=O)c1`, in test [1], the ΔTm came out at 0 °C.
On to `O=S1(=O)N=C(Nc2ccccc2)c2ccccc21`, for which the ΔTm in [1] is 0.02 °C. Besides, the Activity in test [2] was determined as 126%; in test [4] it was 140%; in test [5] it was 90%; in test [6], 96.3%.
In the case of `N#Cc1ccc2c(c1)C(Nc1cc(C(F)(F)F)cc(C(F)(F)F)c1)=NS2(=O)=O`, the ΔTm in test [1] stood at 0.83 °C. Moreover, the outcome in [3] was Active.
For the compound `O=S1(=O)N=C(Nc2cc(F)cc(F)c2)c2ccc(Br)cc21`, the ΔTm in [1] is -0.06 °C.
For `O=S1(=O)N=C(Nc2cc(C(F)(F)F)cc(C(F)(F)F)c2)c2ccc(Br)cc21`, the ΔTm in [1] came to 0.07 °C. Also, the result in [3] was Active.
As for `O=S1(=O)N=C(Nc2cc(F)cc(F)c2)c2cc(Br)ccc21`, the ΔTm in test [1] was 0.37 °C. In test [3], the outcome was Active.
For `O=S1(=O)C=C(Nc2cc(C(F)(F)F)cc(C(F)(F)F)c2)c2ccccc21`, in that order: 0.44 °C and “Active”.
For `O=S1(=O)N=C(Nc2ccc(F)c(F)c2)c2ccccc21`, in that order: 0.29 °C and “Active”.
For `O=C(O)c1cc(NC2=NS(=O)(=O)c3ccccc32)cc(C(=O)O)c1`, in that order: 0.74 °C and “Active”.
Take `COc1cc(NC2=NS(=O)(=O)c3ccccc32)cc(OC)c1`: in test [1], the ΔTm is 0 °C. For the same compound, the outcome in [3] was Active.
`O=S1(=O)N=C(Nc2cc(C(F)(F)F)cc(C(F)(F)F)c2)c2cc(Cl)ccc21`: in [1], the thermal shift (ΔTm) was -0.1 °C.
For the compound `CN(C1=NS(=O)(=O)c2ccccc21)c1cc(C(F)(F)F)cc(C(F)(F)F)c1`, the ΔTm in test [1] came out at 0.44 °C. In addition, the Activity in test [2] is 96.6%; in [4] it was 124%; in [5], 97%. Besides, the result in test [3] was Active.
As to `O=S1(=O)N=C(Nc2ccc(F)cc2F)c2ccccc21`, the ΔTm in test [1] was determined as 0.14 °C.
Take `FC(F)(F)c1cc(Nc2csc3ccccc23)cc(C(F)(F)F)c1`: in test [1], the ΔTm was found to be 0.1 °C. In addition, the Activity in test [2] came to 92.1%; in [4], 102%; in test [5] it was 62%; in test [6] it was 87.4%.
`O=S1(=O)N=C(Nc2cccc(F)c2F)c2ccccc21`: in test [1], the ΔTm is -0.15 °C.
Regarding `O=S1(=O)N=C(Nc2cc(C(F)(F)F)cc(C(F)(F)F)c2)c2cc(Br)ccc21`, the Activity in [7] was 93.3%; in test [2], 432%; in [4] it was 265%; in [8] it was 110%; in test [9] it was 88%; in [5], 117%. For the same compound, the Activity turned out to be 218% in test [6] and 116% in test [10]. The ΔTm in test [1] was 0.87 °C. In addition, the outcome in test [3] was Active.
For `O=S1(=O)N=C(Nc2ccc(C(F)(F)F)cc2)c2ccccc21`, the ΔTm in test [1] came out at 0.44 °C. For the same compound, the Activity in test [2] came out at 95.1%; in [4], 85.7%; in test [5], 90%; in test [6] it was 76.8%. In addition, in test [3], the outcome was Active.
Consider `COC(=O)c1cc(NC2=NS(=O)(=O)c3ccccc32)cc(C(=O)OC)c1`, for which the ΔTm in [1] is 0.02 °C.
Still for that read-out and setting: to `COc1ccc2c(c1)C(Nc1cc(C(F)(F)F)cc(C(F)(F)F)c1)=NS2(=O)=O` belongs -0.29 °C.
As to `O=S1(=O)N=C(Nc2cc(C(F)(F)F)cc(C(F)(F)F)c2)c2ccccc21`, in test [1], the ΔTm worked out at 0.89 °C. Also, the Activity in test [2] amounted to 272%; in test [4] it was 161%; in test [5], 55%; in test [6], 132%. Also, the result in test [3] was Active.
For the compound `O=S1(=O)N=C(Nc2ccc(F)cc2)c2ccccc21`, in [1], the ΔTm is 0.3 °C.
`[O-][s+]1cc(Nc2cc(C(F)(F)F)cc(C(F)(F)F)c2)c2ccccc21` (stereo unspecified): the ΔTm in test [1] was 0.17 °C. The Activity in test [2] was 87.4%; in test [4] it was 111%; in test [5] it was 127%; in test [6], 108%.
Turning to `COC(=O)c1cc(C#N)cc(NC2=NS(=O)(=O)c3ccccc32)c1`, the ΔTm in test [1] was 1.28 °C. The result in [3] was Active.
As to `O=S1(=O)N=C(Nc2cc(F)ccc2F)c2ccccc21`, the ΔTm in test [1] came out at 0.07 °C.
On to `N#Cc1cc(NC2=NS(=O)(=O)c3ccccc32)cc(C(F)(F)F)c1`, for which the ΔTm in [1] is 0.96 °C. Moreover, the result in test [3] was Active.
For `O=S1(=O)N=C(Nc2cc(C(F)(F)F)cc(C(F)(F)F)c2)c2cc(F)ccc21`, the ΔTm in test [1] was -0.14 °C.
Turning to `O=S1(=O)N=C(Nc2cccc(C(F)(F)F)c2)c2ccccc21`, the ΔTm in [1] is 0.74 °C. Moreover, the Activity was determined as 89.4% in test [2], 77.9% in test [4], 102% in test [5] and 80.9% in [6]. Besides, the outcome in test [3] was Active.
Regarding `O=S1(=O)N=C(Nc2ccccc2F)c2ccccc21`, the shift in melting temperature (ΔTm) in test [1] amounted to 0.22 °C.
Regarding `O=S1(=O)N=C(Nc2cc(F)cc(F)c2)c2ccccc21`, the ΔTm in [1] turned out to be 0.55 °C. The Activity turned out to be 214% in [2], 146% in test [4], 72% in test [5] and 185% in test [6]. In addition, the outcome in test [3] was Active.
As to `O=S1(=O)N=C(Nc2cccc(F)c2)c2ccccc21`, in test [1], the ΔTm stood at 0.17 °C.

The record behind these values is ChEMBL document CHEMBL5236640, “SAR study of 1,2-benzisothiazole dioxide compounds that agonize HIF-2 stabilization and EPO production” (Bioorg Med Chem, 2023).
